# Assay results published in patent publication US10865216B2, “Tricyclic Gyrase inhibitors” (MERCK SHARP & DOHME CORP., priority 2012, dated 2020).
# Columns and labels:
# S. aureus ATCC 13709 = assay: MIC, S. aureus ATCC 13709; assay type: cell-based; conditions: Alamar Blue read after overnight incubation at 35° C.; for MIC: Staphylococcus aureus, ATCC13709, S. aureus, read-out: MIC Sa; for MIC Sa: S. aureus
# E. coli ATCC 25922 = assay: MIC, E. coli ATCC 25922; assay type: cell-based; conditions: Alamar Blue read after overnight incubation at 35° C.; for MIC: Escherichia coli, ATCC25922, E. coli, read-out: MIC Ec; for MIC Ec: E. coli
Compound,MIC (S. aureus ATCC 13709) [µg/mL],MIC (E. coli ATCC 25922) [µg/mL],MIC Sa (S. aureus ATCC 13709) [µg/mL],MIC Ec (E. coli ATCC 25922) [µg/mL]
CNc1cccc2c1[nH]c1nc(Oc3cnc(N4CCOCC4)nc3)cc(N3CC4C(N)C4C3)c12 (centres unmarked) [Compound 3.26],> 16,> 16,–,–
CNc1cccc2c1[nH]c1nc(Oc3cncc(C#N)c3)cc(N3CC4C(N)C4C3)c12 (centres unmarked) [Compound 3.27],1,4,–,–
CNc1cccc2c1[nH]c1nc(Oc3cncnc3)cc(N3CC4C(N)C4C3)c12 (centres unmarked) [Compound 3.28],1,2,–,–
CNc1cccc2c1[nH]c1nc(Oc3cnc(C)nc3)cc(N3CC4C(N)C4C3)c12 (centres unmarked) [Compound 3.29],≤ 0.5,≤ 0.5,–,–
CNc1cccc2c1[nH]c1nc(Oc3ccc[n+]([O-])c3)cc(N3CC4C(N)C4C3)c12 (centres unmarked) [Compound 3.30],16,16,–,–
CNc1cccc2c1[nH]c1nc(Oc3ccc4nccnc4c3)cc(N3CC4C(N)C4C3)c12 (centres unmarked) [Compound 3.31],2,8,–,–
CNc1cccc2c1[nH]c1nc(Oc3cnc(N)nc3)cc(N3CC4C(N)C4C3)c12 (centres unmarked) [Compound 3.32],≤ 0.5,2,–,–
CNc1cccc2c1[nH]c1nc(Oc3cncc(F)c3)cc(N3CC4C(N)C4C3)c12 (centres unmarked) [Compound 3.33],≤ 0.5,1,–,–
CNc1cccc2c1[nH]c1nc(Oc3cnc4cccnc4c3)cc(N3CC4C(N)C4C3)c12 (centres unmarked) [Compound 3.34],≤ 0.5,≤ 0.5,–,–
CNc1cccc2c1[nH]c1nc(Oc3cncc(OC)c3)cc(N3CC4C(N)C4C3)c12 (centres unmarked) [Compound 3.35],≤ 0.5,1,–,–
CNc1cccc2c1[nH]c1nc(Oc3cnc4c(c3)ncn4C)cc(N3CC4C(N)C4C3)c12 (centres unmarked) [Compound 3.36],≤ 0.5,2,–,–
CNc1cccc2c1[nH]c1nc(Oc3cncnc3)cc(Oc3cncnc3)c12 [Compound 3.37],2,> 64,–,–
CNc1cccc2c1[nH]c1nc(Oc3cnc(C)nc3)cc(Oc3cnc(C)nc3)c12 [Compound 3.38],1,> 32,–,–
CNc1cccc2c1[nH]c1nc(Oc3ccc[n+]([O-])c3)cc(Oc3cnc(C)nc3)c12 [Compound 3.39],2,64,–,–
CNc1cccc2c1[nH]c1nc(Oc3cncc(C#N)c3)cc(N3CCC4(CC4N)C3)c12 (centres unmarked) [Compound 3.40],≤ 0.5,1,–,–
CNc1cccc2c1[nH]c1nc(Oc3cncnc3)cc(N3CCC4(CC4N)C3)c12 (centres unmarked) [Compound 3.41],≤ 0.5,≤ 0.5,–,–
CNc1cccc2c1[nH]c1nc(Oc3cnc(C)nc3)cc(N3CCC4(CC4N)C3)c12 (centres unmarked) [Compound 3.42],≤ 0.5,2,–,–
CNc1cccc2c1[nH]c1nc(Oc3cncc(C#N)c3)cc(N3CC(N)C4(CC4)C3)c12 (centres unmarked) [Compound 3.43],≤ 0.5,1,–,–
CNc1cccc2c1[nH]c1nc(Oc3cncc(C#N)c3)cc(N3C[C@@H](NC)C4(CC4)C3)c12 [Compound 3.44],8,16,–,–
CNc1cccc2c1[nH]c1nc(Oc3cncnc3)cc(N3CC(N)C4(CC4)C3)c12 (centres unmarked) [Compound 3.45],≤ 0.5,≤ 0.5,–,–
CNc1cccc2c1[nH]c1nc(Oc3cncnc3)cc(N3C[C@@H](NC)C4(CC4)C3)c12 [Compound 3.46],2,4,–,–
CNc1cccc2c1[nH]c1nc(Oc3cncnc3)cc(N3C[C@H](NC)C4(CC4)C3)c12 [Compound 3.47],≤ 0.5,≤ 0.5,–,–
CNc1cccc2c1[nH]c1nc(Oc3cnc(C)nc3)cc(N3C[C@@H](NC)C4(CC4)C3)c12 [Compound 3.48],2,8,–,–
CNc1cccc2c1[nH]c1nc(Oc3cnc(C)nc3)cc(N3C[C@H](NC)C4(CC4)C3)c12 [Compound 3.49],≤ 0.5,≤ 0.5,–,–
CNc1cccc2c1[nH]c1nc(Oc3cncc(F)c3)cc(N3CC(N)C4(CC4)C3)c12 (centres unmarked) [Compound 3.50],≤ 0.5,2,–,–
CNc1cccc2c1[nH]c1nc(Oc3cncc(F)c3)cc(N3C[C@@H](NC)C4(CC4)C3)c12 [Compound 3.51],8,32,–,–
CNc1cc(F)cc2c1[nH]c1nc(Oc3cnc4cccnc4c3)nc(N3CC4C(N)C4C3)c12 (centres unmarked) [Compound 4.037],–,–,≤0.5,≤0.5

# Continued, values first:
MIC (S. aureus ATCC 13709) [µg/mL],MIC (E. coli ATCC 25922) [µg/mL],MIC Sa (S. aureus ATCC 13709) [µg/mL],MIC Ec (E. coli ATCC 25922) [µg/mL],Compound
≤ 0.5,≤ 0.5,–,–,CNc1cccc2c1[nH]c1nc(Oc3cnc4cccnc4c3)cc(N3CC(N)C4(CC4)C3)c12 (centres unmarked) [Compound 3.52]
8,> 32,–,–,CNc1cccc2c1[nH]c1nc(Oc3cncnc3)cc(N3CCN(Cc4ccccn4)CC3)c12 [Compound 3.54]
64,> 64,–,–,CNc1cccc2c1[nH]c1nc(Oc3cncc(C#N)c3)cc(N3CCN(CCN)CC3)c12 [Compound 3.55]
> 64,> 64,–,–,CNc1cccc2c1[nH]c1nc(Oc3cncnc3)cc(N3CCN(CCN)CC3)c12 [Compound 3.56]
4,> 64,–,–,CNc1cccc2c1[nH]c1nc(Oc3cncc(C#N)c3)cc(N3CCN(CCN4CCOCC4)CC3)c12 [Compound 3.59]
8,> 64,–,–,CNc1cccc2c1[nH]c1nc(Oc3cncnc3)cc(N3CCN(CCN4CCOCC4)CC3)c12 [Compound 3.60]
4,16,–,–,CNc1cccc2c1[nH]c1nc(Oc3cncnc3)cc(N3C[C@@H]4CNC[C@H]4C3)c12 [Compound 3.61]
≤ 0.5,8,–,–,CNc1cccc2c1[nH]c1nc(Oc3cncnc3)cc(N3C/C(=N\OC)[C@@H](N)C3)c12 [Compound 3.62]
≤ 0.5,8,–,–,CNc1cccc2c1[nH]c1nc(Oc3cncnc3)cc(N3CC(F)[C@@H](N)C3)c12 (some centres unmarked) [Compound 3.63]
16,64,–,–,CNc1cccc2c1[nH]c1nc(Oc3cncnc3)cc(N3CCC(N)CC3)c12 [Compound 3.64]
8,64,–,–,CNc1cccc2c1[nH]c1nc(Oc3cncnc3)cc(N3CCC4(CNC4)C3)c12 [Compound 3.65]
8,> 32,–,–,CNc1cccc2c1[nH]c1nc(Oc3cncc(F)c3)cc(N3CCC4(CNC4)C3)c12 [Compound 3.66]
16,64,–,–,CNc1cccc2c1[nH]c1nc(Oc3cncnc3)cc(N3CC4(CCNC4)C3)c12 [Compound 3.67]
–,–,≤0.5,≤0.5,CNc1cc(F)cc2c1[nH]c1nc(Oc3cncnc3)nc(N3CC4C(N)C4C3)c12 (centres unmarked) [Compound 4.001]
–,–,≤0.5,≤0.5,CNc1cc(F)cc2c1[nH]c1nc(Oc3cncnc3)nc(N3CC(N)C4(CC4)C3)c12 (centres unmarked) [Compound 4.002]
–,–,≤0.5,≤0.5,CNc1cc(F)cc2c1[nH]c1nc(Oc3cncnc3)nc(N3CCC4(CC4N)C3)c12 (centres unmarked) [Compound 4.003]
–,–,≤0.5,2,CNc1cc(F)cc2c1[nH]c1nc(Oc3cncnc3)nc(N3CC4C(CN)C4C3)c12 (centres unmarked) [Compound 4.004]

MIC (S. aureus ATCC 13709) [µg/mL],MIC (E. coli ATCC 25922) [µg/mL],MIC Sa (S. aureus ATCC 13709) [µg/mL],MIC Ec (E. coli ATCC 25922) [µg/mL],Compound
–,–,≤0.5,≤0.5,CNc1cc(F)cc2c1[nH]c1nc(Oc3cncnc3)nc(N3CC4CC4(N)C3)c12 (centres unmarked) [Compound 4.005]
–,–,≤0.5,≤0.5,CNc1cc(F)cc2c1[nH]c1nc(Oc3cncnc3)nc(N3CC4C(N)C4C3)c12 (centres unmarked) [Compound 4.010]
–,–,≤0.5,1,CNc1cc(F)cc2c1[nH]c1nc(Oc3cncnc3)nc(N3CC4CCC(N)C4C3)c12 (centres unmarked) [Compound 4.016]
–,–,≤0.5,≤0.5,CNc1cc(F)cc2c1[nH]c1nc(Oc3cncnc3)nc(N3CCC(C4(N)CC4)C3)c12 (centres unmarked) [Compound 4.017]
–,–,≤0.5,≤0.5,CNc1cc(F)cc2c1[nH]c1nc(Oc3cncnc3)nc(N3CC4CCNC4C3)c12 (centres unmarked) [Compound 4.020]
–,–,≤0.5,1,CNc1cc(F)cc2c1[nH]c1nc(Oc3cncnc3)nc(N3CC(C)C(CN)C3)c12 (centres unmarked) [Compound 4.023]
–,–,≤0.5,2,CNc1cc(F)cc2c1[nH]c1nc(Oc3cncnc3)nc(N3CCCC(C)(N)C3)c12 (centres unmarked) [Compound 4.024]
–,–,≤0.5,2,CNc1cc(F)cc2c1[nH]c1nc(Oc3cncnc3)nc(N3C4CCC3CC(N)C4)c12 (centres unmarked) [Compound 4.025]
–,–,≤0.5,≤0.5,CNc1cc(F)cc2c1[nH]c1nc(Oc3cncnc3)nc(N3CC4CCC(N)C4C3)c12 (centres unmarked) [Compound 4.026]
–,–,≤0.5,1,CNc1cc(F)cc2c1[nH]c1nc(Oc3cncnc3)nc(N3CCC(C4(N)CC4)C3)c12 (centres unmarked) [Compound 4.027]
–,–,≤0.5,≤0.5,CNc1cc(F)cc2c1[nH]c1nc(Oc3cncnc3)nc(N3CC4C[C@@H](N)C4C3)c12 (some centres unmarked) [Compound 4.028]
–,–,4,16,CNc1cc(F)cc2c1[nH]c1nc(Oc3cncnc3)nc(N3CC(N)CC3C)c12 (centres unmarked) [Compound 4.029]
–,–,2,>16,CNc1cc(F)cc2c1[nH]c1nc(Oc3cncnc3)ncc12 [Compound 4.031]
–,–,≤0.5,4,CNc1cc(F)cc2c1[nH]c1nc(Oc3cncnc3)nc(N3CCC4(CCNC4)C3)c12 (centres unmarked) [Compound 4.033]
–,–,≤0.5,≤0.5,CNc1cc(F)cc2c1[nH]c1nc(Oc3cnc4cccnc4c3)nc(N3CC4CC4(N)C3)c12 (centres unmarked) [Compound 4.036]
–,–,≤0.5,≤0.5,CNc1cc(F)cc2c1[nH]c1nc(Oc3cnc4cccnc4c3)nc(N3CC4(CC4N)C3)c12 (centres unmarked) [Compound 4.042]
–,–,≤0.5,≤0.5,CNc1cc(F)cc2c1[nH]c1nc(Oc3cnc4cccnc4c3)nc(N3CC4CCNC4C3)c12 (centres unmarked) [Compound 4.044]
